Test results as given in patent publication US6399543B1, “Low foam N,N′-dialkyltartaramide wetting agents” (Air Products and Chemicals, Inc., priority 2001, dated 2002).

Legend:
Assay type in all cases: physicochemical
[1] = Concentration of surfactant in filtered saturated solution in distilled water; conditions: shaken ~24 hours
Method: (§1) Saturated solutions of the materials of Examples 1-9 in distilled water were prepared. After shaking the solutions for ˜24 hours, the undissolved material was removed via filtration. Equilibrium surface tension (EST) data were obtained using the Wilhelmy plate method. Equilibrium surface tension values between 65-72 dyne/cm are considered to be indicative of a lack of surface activity (i.e., a lack of surfactancy).

[2] = Equilibrium surface tension (EST), Wilhelmy plate method, saturated aqueous solutions; conditions: for Limiting EST: saturated solution in distilled water, undissolved material filtered off, Wilhelmy plate
Method: where R^1 and R^2 are C4 to C8 alkyl groups, and at least one of R^1 and R^2 is a branched C4 to C8 alkyl group. […] The Wilhelmy plate method of measuring surface tension is described in L. Wilhelmy's article in Ann. Phys. 1863, 119, 177, which is incorporated by reference.
as §1
The limiting surface tensions represent the lowest surface tensions in water which can be achieved for a given surfactant regardless of the amount of surfactant used and is used to evaluate the effectiveness of a surfactant. Lower surface tensions would allow for the elimination of defects upon application of a formulation onto low energy surfaces.

[3] = Foaming properties of aqueous solutions, procedure based upon ASTM D 1173-53; conditions: filtrate of aqueous mixture of the tartaramide; for Initial Foam: foam height at completion of addition
Method: The foaming properties of aqueous solutions of N,N′-di-iso-pentyl L-tartaramide (Ex 1), N,N′-di-2-ethylhexyl L-tartaramide (Ex 5) and two representative nonionic surfactants, a commercial nonylphenol 15 mole ethoxylate surfactant and a commercial C8 alkyl glucoside surfactant, were examined using a procedure based upon ASTM D 1173-53.
In this test, an aqueous mixture of the tartaramides was prepared, any undissolved solids were filtered off, and the filtrate was added from an elevated glass pipette to a glass receiver containing the same filtrate. Regarding the commercial materials, a 0.1 wt % solution of the surfactant was added from an elevated glass pipette to a glass receiver containing the same solution. The foam height was measured at the completion of the addition (“Initial Foam Height”) and the time required for the foam to dissipate at the air-liquid interface (“Time to 0 Foam”) was recorded. This test provides a comparison between the foaming characteristics of various surfactants. In general, in coatings, inks, adhesives, agricultural and electronics cleaning formulations, foam is undesirable because it complicates handling and can lead to coating and print defects, and to inefficient application of agricultural materials.

Concentration of Surfactant in Solution [1] [wt. %]	Limiting EST [2] [dyne/cm]	lowering the equilibrium surface tension of water (in words) [2]	Foam after 5 min [3] [cm]	Time to zero foam [3]	Initial Foam [3] [cm]	Structure (SMILES)
<0.1	38.0	particularly effective	–	–	–	CC(C)CCCC(C)NC(=O)C(O)C(O)C(=O)NC(C)CCCC(C)C [Ex 3, N,N′-Di-1,5-dimethylhexyl L-tartaramide]
<0.1	41.5	particularly effective	–	–	–	CCCCCC(C)NC(=O)C(O)C(O)C(=O)NC(C)CCCCC [Ex 4, N,N′-Di-1-methylhexyl L-tartaramide]
<0.1	39.5	particularly effective	–	–	–	CCCCCCC(C)NC(=O)C(O)C(O)C(=O)NC(C)CCCCCC [Ex 2, N,N′-Di-1-methylheptyl L-tartaramide]

Second part, the molecule before the results:

Structure (SMILES)	Concentration of Surfactant in Solution [1] [wt. %]	Limiting EST [2] [dyne/cm]	lowering the equilibrium surface tension of water (in words) [2]	Foam after 5 min [3] [cm]	Time to zero foam [3]	Initial Foam [3] [cm]
CCCNC(=O)[C@H](O)[C@@H](O)C(=O)NCCC [Ex 6, N,N′-Di-n-propyl L-tartaramide]	<1.0	67.7	–	–	–	–
CCCCCCNC(=O)[C@H](O)[C@@H](O)C(=O)NCCCCCC [Ex 8, N,N′-Di-n-hexyl L-tartaramide]	<0.1	67.8	–	–	–	–
CC(C)CCNC(=O)[C@H](O)[C@@H](O)C(=O)NCCC(C)C [Ex 1, N,N′-Di-iso-pentyl L-tartaramide]	<1.5	48.0	–	0	≦5 sec	0.5
CCCCNC(=O)[C@H](O)[C@@H](O)C(=O)NCCCC [Ex 7, N,N′-Di-n-butyl L-tartaramide]	<1.0	65.0	–	–	–	–
CCCCC(CC)CNC(=O)C(O)C(O)C(=O)NCC(CC)CCCC [Ex 5, N,N′-Di-2-ethylhexyl L-tartaramide]	<0.1	41.4	particularly effective	0	˜3 sec	1.5
O=C(NC1CCCCC1)[C@H](O)[C@@H](O)C(=O)NC1CCCCC1 [Ex 9, N,N′-Di-cyclohexyl L-tartaramide]	<0.1	67.9	–	–	–	–
